# Test results from PMC6299220 (mBio, 2018).
# Where “and” joins values, the source holds several entries; their conditions need not be identical. Equal values may be shown once. Read-outs that look alike come from different tables or passages of the source.
# Experiments:
# [1] = Mouse liver microsomal (MLM) stability; conditions: for half-life: mouse, liver microsomes
# M. tuberculosis H37Rv = experiment: microbe, parasite or virus in culture; format: cell-based, Mycobacterium tuberculosis
# KasA = KasA (Mycobacterium tuberculosis, UniProt P9WQD9); experiment: Microscale thermophoresis (MST) binding assay; conditions: 49.5 nM labeled KasA
# KasA, sequence (P9WQD9 whole entry): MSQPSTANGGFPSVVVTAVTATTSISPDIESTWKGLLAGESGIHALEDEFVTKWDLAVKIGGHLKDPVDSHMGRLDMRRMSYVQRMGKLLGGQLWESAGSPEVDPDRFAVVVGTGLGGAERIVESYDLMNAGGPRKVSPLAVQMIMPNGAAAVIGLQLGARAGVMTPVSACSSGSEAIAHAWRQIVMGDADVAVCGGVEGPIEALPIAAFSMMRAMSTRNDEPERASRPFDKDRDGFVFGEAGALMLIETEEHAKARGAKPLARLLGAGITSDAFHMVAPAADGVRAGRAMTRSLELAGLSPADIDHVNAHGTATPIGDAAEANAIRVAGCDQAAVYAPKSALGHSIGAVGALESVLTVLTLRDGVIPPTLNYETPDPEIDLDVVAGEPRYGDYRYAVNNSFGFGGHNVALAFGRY
# [2] = mouse, microsomes
# [3] = system: mycolic acid biosynthesis in M. tuberculosis H37Rv; format: cell-based, Mycobacterium tuberculosis
# physchem = conditions: pH 7.4, aqueous buffer, kinetic from dmso stock
# in vitro [4] = format: cell-based; conditions: mouse
# From the text: (§1) Supplement mbo006184230st8.docx, table 1: Table S3. Profile of DG167 | column: value
# [5] = Chemical stability at pH 2, 7, 9; format: physicochemical; conditions: for half-life: buffer, read-out: Chemical stability t1/2
# From the text: as §1
# M. abscessus = experiment: MIC, MABA; format: cell-based; conditions: Mycobacteroides abscessus; M. abscessus ATCC wild type
# hERG = hERG (Homo sapiens, UniProt Q12809); experiment: hERG inhibition
# hERG, sequence (Q12809 whole entry): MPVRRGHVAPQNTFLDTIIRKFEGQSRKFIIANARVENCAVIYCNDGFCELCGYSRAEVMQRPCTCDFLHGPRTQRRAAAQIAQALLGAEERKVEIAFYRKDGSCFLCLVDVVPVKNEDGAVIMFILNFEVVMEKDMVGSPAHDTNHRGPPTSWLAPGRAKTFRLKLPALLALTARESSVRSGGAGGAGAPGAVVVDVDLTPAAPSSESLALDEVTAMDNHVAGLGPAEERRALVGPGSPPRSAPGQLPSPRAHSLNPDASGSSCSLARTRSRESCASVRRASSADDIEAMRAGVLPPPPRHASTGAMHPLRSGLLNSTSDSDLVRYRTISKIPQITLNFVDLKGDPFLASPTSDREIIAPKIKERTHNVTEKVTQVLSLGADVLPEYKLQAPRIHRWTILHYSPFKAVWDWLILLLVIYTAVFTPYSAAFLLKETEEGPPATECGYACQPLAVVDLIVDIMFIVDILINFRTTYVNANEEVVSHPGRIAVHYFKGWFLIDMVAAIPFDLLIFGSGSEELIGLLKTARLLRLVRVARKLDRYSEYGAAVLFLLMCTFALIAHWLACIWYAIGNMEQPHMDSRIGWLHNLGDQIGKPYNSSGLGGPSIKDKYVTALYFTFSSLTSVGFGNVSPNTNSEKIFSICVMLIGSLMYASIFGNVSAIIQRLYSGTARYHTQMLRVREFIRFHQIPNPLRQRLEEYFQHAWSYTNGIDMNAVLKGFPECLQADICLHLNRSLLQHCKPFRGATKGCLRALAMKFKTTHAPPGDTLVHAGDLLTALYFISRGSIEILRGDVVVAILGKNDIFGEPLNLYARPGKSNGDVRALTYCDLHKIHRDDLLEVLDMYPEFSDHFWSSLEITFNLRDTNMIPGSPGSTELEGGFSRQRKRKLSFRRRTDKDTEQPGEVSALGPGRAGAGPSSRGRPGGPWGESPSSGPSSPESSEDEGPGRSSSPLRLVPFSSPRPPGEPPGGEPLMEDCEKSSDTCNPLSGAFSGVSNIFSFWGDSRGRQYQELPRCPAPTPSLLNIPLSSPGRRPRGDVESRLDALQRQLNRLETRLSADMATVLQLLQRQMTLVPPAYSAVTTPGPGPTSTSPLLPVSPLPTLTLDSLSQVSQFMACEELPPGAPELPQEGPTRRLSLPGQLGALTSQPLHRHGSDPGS
# [6] = system: iniBAC promoter (PiniBAC); format: cell-based, M. bovis BCG
# in vivo = conditions: female, BALB/c
# Protocol: All animal experiments were approved by the Institutional Animal Care and Use Committee of the New Jersey Medical School, Rutgers University, and were conducted in compliance with their guidelines. […] Sequential bleeds were collected at 0.25, 0.5, 1, 3, 5, and 8 h postdose via the tail snip method. Blood (50 µl) was collected in capillary microvette EDTA blood tubes and kept on ice prior to centrifugation at 1,500 × g for 5 min. The supernatant (plasma) was transferred into a 96-well plate and stored at −80°C.
# Chromatography was performed with an Agilent Zorbax SB-C8 column (2.1 by 30 mm; particle size, 3.5 µm) using a reverse-phase gradient elution. A mixture of 0.1% formic acid–Milli-Q deionized water was used for the aqueous mobile phase and 0.1% formic acid–acetonitrile (ACN) for the organic mobile phase. […] Extracts were subjected to vortex mixing for 5 min and centrifuged at 4,000 rpm for 5 min. The supernatants were analyzed by LC-MS. Verapamil IS was sourced from Sigma-Aldrich.
# CYP2C9 = CYP2C9 (Homo sapiens, UniProt P11712); experiment: biochemical; format: in vitro ADME
# CYP2C9, sequence (P11712 whole entry): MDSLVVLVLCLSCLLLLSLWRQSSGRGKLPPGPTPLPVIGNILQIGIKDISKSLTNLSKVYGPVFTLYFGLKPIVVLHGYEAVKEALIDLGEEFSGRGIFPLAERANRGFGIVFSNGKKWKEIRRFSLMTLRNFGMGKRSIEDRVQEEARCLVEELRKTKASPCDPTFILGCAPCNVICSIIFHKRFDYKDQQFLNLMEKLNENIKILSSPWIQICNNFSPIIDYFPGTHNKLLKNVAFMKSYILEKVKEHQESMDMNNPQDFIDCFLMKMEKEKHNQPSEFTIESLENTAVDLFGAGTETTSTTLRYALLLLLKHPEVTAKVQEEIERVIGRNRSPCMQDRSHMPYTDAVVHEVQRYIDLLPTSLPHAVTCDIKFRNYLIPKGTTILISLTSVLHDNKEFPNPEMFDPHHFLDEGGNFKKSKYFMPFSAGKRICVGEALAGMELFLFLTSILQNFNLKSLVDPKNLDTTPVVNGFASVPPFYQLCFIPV
# From the text: as §1
# CYP1A2 = CYP1A2 (Homo sapiens, UniProt P05177); experiment: biochemical; format: in vitro ADME
# CYP1A2, sequence (P05177 whole entry): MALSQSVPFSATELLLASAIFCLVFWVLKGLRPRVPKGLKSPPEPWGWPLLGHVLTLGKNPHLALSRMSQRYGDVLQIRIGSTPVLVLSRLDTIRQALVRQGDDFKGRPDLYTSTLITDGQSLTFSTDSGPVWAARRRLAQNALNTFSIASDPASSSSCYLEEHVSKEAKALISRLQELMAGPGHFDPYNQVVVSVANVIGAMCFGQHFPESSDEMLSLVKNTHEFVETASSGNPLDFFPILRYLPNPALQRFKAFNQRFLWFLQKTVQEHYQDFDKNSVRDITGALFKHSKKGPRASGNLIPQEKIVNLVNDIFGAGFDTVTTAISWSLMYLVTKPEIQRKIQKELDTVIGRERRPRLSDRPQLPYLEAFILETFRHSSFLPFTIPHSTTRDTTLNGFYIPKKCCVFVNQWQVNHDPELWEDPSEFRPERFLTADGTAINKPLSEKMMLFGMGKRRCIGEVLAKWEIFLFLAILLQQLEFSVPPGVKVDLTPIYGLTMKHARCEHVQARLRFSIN
# From the text: as §1
# CYP2D6 = CYP2D6 (Homo sapiens, UniProt P10635); experiment: biochemical; format: in vitro ADME
# CYP2D6, sequence (P10635 whole entry): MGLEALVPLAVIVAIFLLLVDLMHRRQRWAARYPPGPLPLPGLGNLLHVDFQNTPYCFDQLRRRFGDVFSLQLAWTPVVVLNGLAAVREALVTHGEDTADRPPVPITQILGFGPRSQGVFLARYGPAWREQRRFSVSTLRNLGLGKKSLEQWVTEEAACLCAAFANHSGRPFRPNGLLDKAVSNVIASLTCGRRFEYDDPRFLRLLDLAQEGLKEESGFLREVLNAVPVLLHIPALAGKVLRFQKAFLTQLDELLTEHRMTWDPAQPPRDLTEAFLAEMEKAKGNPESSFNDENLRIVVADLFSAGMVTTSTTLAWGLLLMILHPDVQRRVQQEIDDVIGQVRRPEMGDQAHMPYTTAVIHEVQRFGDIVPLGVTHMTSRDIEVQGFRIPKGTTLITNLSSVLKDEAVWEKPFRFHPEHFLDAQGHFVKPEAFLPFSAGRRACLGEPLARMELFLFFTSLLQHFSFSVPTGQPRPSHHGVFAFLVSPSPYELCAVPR
# From the text: as §1
# CYP3A4 = CYP3A4 (Homo sapiens, UniProt P08684); experiment: biochemical; format: in vitro ADME
# CYP3A4, sequence (P08684 whole entry): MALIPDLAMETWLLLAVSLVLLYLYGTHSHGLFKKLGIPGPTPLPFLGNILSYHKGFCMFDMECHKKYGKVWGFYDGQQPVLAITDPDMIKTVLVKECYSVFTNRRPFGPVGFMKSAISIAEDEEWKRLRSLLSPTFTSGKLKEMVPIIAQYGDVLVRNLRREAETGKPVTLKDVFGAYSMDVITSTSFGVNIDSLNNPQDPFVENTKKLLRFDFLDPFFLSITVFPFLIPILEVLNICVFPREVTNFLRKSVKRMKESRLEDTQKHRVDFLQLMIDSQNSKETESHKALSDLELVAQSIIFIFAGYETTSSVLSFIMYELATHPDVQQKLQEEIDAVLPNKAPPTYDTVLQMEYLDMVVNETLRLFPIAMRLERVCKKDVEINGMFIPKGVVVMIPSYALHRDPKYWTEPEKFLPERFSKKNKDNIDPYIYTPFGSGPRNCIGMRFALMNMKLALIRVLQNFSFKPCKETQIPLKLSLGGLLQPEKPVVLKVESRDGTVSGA
# From the text: as §1
# [7] = system: M. tuberculosis H37Rv gene expression; format: cell-based, Mycobacterium tuberculosis
# in vitro [8] = conditions: human
# [9] = not given; remark: listed apart in the source
# in vitro [10] = conditions: mouse, microsomes
# [11] = system: M. tuberculosis 100-day-old bacilli (persisters); format: cell-based, Mycobacterium tuberculosis
# CYP2C19 = CYP2C19 (Homo sapiens, UniProt P33261); experiment: Cytochrome P450 inhibition; format: in vitro ADME; conditions: read-out: Cytochrome P450 IC50, 2C19
# CYP2C19, sequence (P33261 whole entry, species assumed): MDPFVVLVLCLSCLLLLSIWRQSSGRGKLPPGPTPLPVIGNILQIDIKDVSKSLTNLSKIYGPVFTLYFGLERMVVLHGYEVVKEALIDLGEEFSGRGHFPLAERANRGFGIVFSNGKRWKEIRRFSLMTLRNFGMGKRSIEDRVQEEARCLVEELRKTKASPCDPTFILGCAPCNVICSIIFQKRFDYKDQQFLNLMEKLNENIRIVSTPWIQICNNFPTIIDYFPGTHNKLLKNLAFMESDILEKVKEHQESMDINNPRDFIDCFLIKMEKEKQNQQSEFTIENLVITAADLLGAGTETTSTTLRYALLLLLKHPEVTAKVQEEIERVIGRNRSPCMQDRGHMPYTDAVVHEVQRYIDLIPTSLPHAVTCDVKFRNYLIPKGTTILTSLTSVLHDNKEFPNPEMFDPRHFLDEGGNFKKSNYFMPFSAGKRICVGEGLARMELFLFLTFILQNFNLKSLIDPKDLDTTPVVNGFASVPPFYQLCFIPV
# M. smegmatis = experiment: MIC, MABA; format: cell-based; conditions: Mycolicibacterium smegmatis; M. smegmatis wild-type
# in vitro [12] = conditions: African green monkey
# [13] = format: in vitro ADME
# From the text: as §1
# M. avium = experiment: MIC, MABA; format: cell-based; conditions: Mycobacterium avium; M. avium ATCC wild type
# M. marinum = experiment: MIC, MABA; format: cell-based; conditions: Mycobacterium marinum; M. marinum ATCC wild type
# in vitro [14] = format: in vitro ADME; conditions: for fraction unbound: plasma
# From the text: as §1
# M. fortuitum = experiment: MIC, MABA; format: cell-based; conditions: Mycolicibacterium fortuitum; M. fortuitum ATCC wild type
# M. tuberculosis 210 = experiment: microbe, parasite or virus in culture; format: cell-based; conditions: Mycobacterium tuberculosis
# M. tuberculosis TDR692 = experiment: microbe, parasite or virus in culture; format: cell-based; conditions: Mycobacterium tuberculosis
# M. bovis BCG = experiment: microbe, parasite or virus in culture; format: cell-based; conditions: Mycobacterium tuberculosis variant bovis BCG
# M. tuberculosis = conditions: cited from earlier work
# [15] = MLM stability t1/2 without NADPH, without NADPH
compound,measurement,setting,value
1-Methyl-N-pentyl-1H-indazol-6-amine [5f],MLM stability clint,[1]; Table 3,56.7 μl/mi/mg protein
same,MLM stability t1/2,[1]; with NADPH,12.2 min
same,MLM stability t1/2 without NADPH,[1]; without NADPH,"> 3,060 min"
same,Kinetic solubility in pH 7.4 PBS,,>500 µM
same,MIC,M. tuberculosis H37Rv,>100 µM
"CCCCS(=O)(=O)Nc1ccc2cn[nH]c2c1 [5a-2, N-(1H-Indazol-6-yl)butane-1-sulfonamide]",EC50,KasA,1.74 µM
same,MLM stability clint,[2],68.7 μl/mi/mg protein
same,half-life,"[1]; MLM stability t1/2, with NADPH",12.2 min
same,half-life,[1]; [15],> 3060 min
same,MIC,M. tuberculosis H37Rv,>100 µM
same,MIC,"M. tuberculosis H37Rv; Mycobacterium tuberculosis, H37RV",> 100 µM
same,inhibition of mycolic acid biosynthesis,[3],did not show any inhibition
same,solubility kinetic,physchem,> 600 µM
"CCCCS(=O)(=O)Nc1ccc2cnn(C)c2c1 [DG167, N-(1-Methyl-1H-indazol-6-yl)butane-1-sulfonamide]",CC50,in vitro [4],94 µM
same,half-life,[5]; pH 2,192 h
same,half-life,[5]; pH 9,57.8 h
same,Chemical stability t1/2,[5]; pH 7,Stable
same,MIC,M. abscessus,> 50 µM
same,IC50,hERG,> 20 µM
same,EC50,KasA,0.131 ± 0.0182 µM
same,MLM stability clint,[2],68.9 μl/mi/mg protein
same,MLM-generated metabolites,[2],"A demethylated species, corresponding to loss of the 1-methyl group (Fig. S5A), predominated among the metabolites"
same,induction of iniBAC promoter,[6],approximately 12 fold
same,AUC(0-t),"in vivo; mouse, in vivo, iv, 5 mg/kg",1750 ng·h/mL
same,half-life,"in vivo; mouse, in vivo, iv, 5 mg/kg",19.8 min
same,AUC(0-t),"in vivo; mouse, in vivo, po, 25 mg/kg",8080 ng·h/mL
same,bioavailability,"in vivo; plasma, po, 25 mg/kg",92.3%
same,IC50,CYP2C9,> 50 µM
same,IC50,CYP1A2,> 50 µM
same,IC50,CYP2D6,> 50 µM
same,IC50,CYP3A4,> 50 µM
same,"expression of the kasA, kasB, and acpM genes and the iniBAC operon",[7],strongly induced expression
same,Papp,"in vitro [8]; Caco-2, Caco-2 Permeability PA-B",71.8 ×10⁻⁶ cm/s
same,Papp,"in vitro [8]; Caco-2, Caco-2 Permeability PB-A",45.6 ×10⁻⁶ cm/s
same,"tolerability, dose escalation","[9]; mice, 50 and 100 mg/kg, monitored for 8 h",well tolerated
same,dose tolerability for 5 days,"[9]; mice, 5 days, DG167 50 and 100 mg/kg, combination DG167 100 mg/kg with INH 25 mg/kg",did not show any behavioral changes or weight loss
same,"tolerability, dose escalation","[9]; mouse, in vivo","heavy breathing, hunched posture, and decreased activity"
same,half-life,in vitro [10],10.1 min
same,microsomal CLint,in vitro [10],68.9 µL/min/mg
same,half-life,in vitro [10]; [15],> 300 min
same,inhibition of mycolic acid biosynthesis,[3],dose-dependent inhibition
same,killing of persister cultures,[11],minimal killing
same,IC50,CYP2C19,12 µM and 12.4 µM
same,MIC,M. smegmatis,> 50 µM
same,CC50,in vitro [12],23 µM
same,Human plasma stability at 5 h,[13],109%
same,Mouse plasma stability @ 5 h,[13],99.1%
same,MIC,M. avium,> 50 µM
same,MIC,M. marinum,> 50 µM
same,recovery,in vitro [14]; human,92%
same,fraction unbound,in vitro [14]; human,0.081
same,recovery,in vitro [14]; mouse,90.7%
same,fraction unbound,in vitro [14]; mouse,0.21
same,MIC,M. fortuitum,> 50 µM
same,solubility kinetic,physchem,324 µM
"NNC(=O)c1ccncc1 [INH, isoniazid]",MIC,M. abscessus,> 12 µM
same,"Fold change, Rv0885",[7],2.044 fold
same,"Fold change, Rv2706c",[7],2.3 fold
same,"Fold change, Rv3269",[7],-2.076 fold
same,"Fold change, Rv3352c",[7],2.131 fold
same,"Fold change, ctpD",[7],2.334 fold
same,"Fold change, cysA3",[7],-2.027 fold
same,"Fold change, fadD5",[7],-2.2153 fold
same,"Fold change, fadD11",[7],-2.252 fold
same,"Fold change, lprQ",[7],2.051 fold
same,"Fold change, sapM",[7],2.01 fold
same,"expression of the kasA, kasB, and acpM genes and the iniBAC operon",[7],strongly induced expression
same,MIC,M. tuberculosis 210,0.4 µM
same,killing of persister cultures,[11],minimal killing
same,MIC,M. tuberculosis TDR692,0.2 µM
same,MIC,M. smegmatis,> 12 µM
same,MIC,M. bovis BCG,0.4 µM
same,MIC,M. avium,> 12 µM
same,MIC,M. marinum,> 12 µM
same,MIC,M. fortuitum,> 12 µM
CC12C[C@@]34C=CC(=O)[C@@](C)(CCC(=O)Nc5c(O)ccc(C(=O)O)c5O)C3[C@H](CC1C4)O2 (some centres unmarked) [platensimycin],whole-cell activity in M. tuberculosis,M. tuberculosis,27 µM
C=C/C(C)=C/[C@@]1(C)SC(=O)C(C)=C1O [thiolactomycin],whole-cell activity in M. tuberculosis,M. tuberculosis,142 µM
